Drawing on a melting point compilation (Tetko et al.; mined from patent text by program, amines drawn as free bases though some values may be those of a salt), this text covers melting point for 62 molecules.

Each structure is given as a SMILES string.

As usually defined, the melting point is the temperature, or range, at which the solid turns liquid.

`CC(=O)OCC(=O)C1(OC(C)=O)CCC2C3C=C(C)C4=CC(=O)CCC4(C)C3CCC21C` (configuration not stated) showed a melting point of 213 to 215 °C.
As for `CC1(C)C(C=C(Br)Br)C1C(=O)O` (configuration not stated), the figure is 116 to 117 °C; as for `Cc1nc(NC(=O)c2cnn3c(C(F)(F)F)cc(-c4ccc(C(F)(F)F)cc4)nc23)sc1S(=O)(=O)NC(CO)CO`, 215 °C.
As for `c1ccc2c(c1)c(N1CCOCC1)nc1c(-c3nc(C4CC4)no3)ncn12`, the figure is 189 to 191 °C; as for `N#CCCNC(=O)c1n[nH]cc1NC(=O)c1ccc2c(c1)CCO2`, 206 to 207 °C; as for `Cc1nc(NC(=O)c2cnn3c(C(F)F)cc(-c4ccc(C(F)(F)F)cc4)nc23)sc1S(=O)(=O)NC(C)(CO)CO`, 248 °C.
As for `CNC(=O)C1=CC(CF)(CF)Oc2ccc(C#N)cc21`, the figure is 206 to 207 °C.
Regarding `CC(C)(C)c1ccccc1N1CCN(C(=O)c2ccc(F)cc2)CC1`, the melting point was 137 to 139 °C.
As for `Cc1snc(O)c1C#N`, the figure is 205 °C; as for `Cc1nnc2n1-c1ccc(C#CCN3C(=O)C(=O)c4ccccc43)cc1C(c1ccccc1Cl)=NC2`, 210 to 212 °C; as for `CN(C)C=C1Cc2c(Cl)cccc2C1=O`, 148 to 150 °C.
As for `COc1ccc(N2CCN(c3c(C)c(C)c4c(c3C)CC(C)(COC=O)O4)CC2)cc1` (configuration not stated), the figure is 120 to 124 °C.
As for `O=C(NCc1cc(C(F)(F)F)cc(C(F)(F)F)c1)c1ccccc1-c1ccccc1`, the figure is 86 to 87 °C; as for `Fc1ccc2c(c1)C1=NCCN1C(Cl)=N2`, 209 to 211 °C; as for `Cc1ccc2c(c1)C(C(=O)O)c1cc(Br)ccc1CO2` (configuration not stated), 168 to 170 °C.
As to `Cc1c[nH]c(=O)nc1N`, the melting point is 264 to 269 °C.
As for `O=S(=O)(Nc1ccccc1)c1ccc(NC(=S)Nc2ccccc2)cc1`, the figure is 160 to 162 °C; as for `CC(/C=C/[C@H]1C[C@H]1c1ccc2c(c1)C(C)(C)CCC2(C)C)=C\C(=O)O` (racemic), 93 to 96 °C.
As for `O=C(Oc1cc([N+](=O)[O-])c(F)cc1Cl)Oc1cc([N+](=O)[O-])c(F)cc1Cl`, the figure is 165 to 166 °C; as for `COc1cc2c(cc1OC)N(C)C(=O)CN=C2c1ccc(Cl)c(Cl)c1`, 174 to 177 °C.
As for `CCCCCCC(C)(C)c1ccc([C@@H]2CC(=O)C[C@@H](O)C2)c(OCc2ccccc2)c1` (relative stereo), the figure is 95 °C.
Consider `COc1cc(C=C2SC(=O)NC2=O)ccc1OCCN1c2ccccc2Sc2ccccc21`, for which the melting point lay within 210 to 212 °C.
As for `CCOc1cn(C)cc(-c2cccc(C(F)(F)F)c2)c1=O`, the figure is 131 to 133 °C; as for `N#CCCCCCC(=O)c1ccc(Cl)cc1`, 44 to 46 °C; as for `CCCCOc1ccc2c(c1)C(NS(C)(=O)=O)CC(C)(C)O2` (configuration not stated), 123 to 127 °C.
As for `COc1ccc(C2(O)c3ccccc3C(=O)N2CCc2cccc(OC)c2)cc1` (configuration not stated), the figure is 119 °C.
`NS(=O)(=O)c1cc2c(c(C(=O)N3CCN(c4ncccn4)CC3)c1)OCCO2` gave a melting point of 239 °C.
As for `COc1ccc(-c2cccc(-c3nc(C(C)C)[nH]c3-c3cccc(C)n3)c2)cc1`, the figure is 75 to 77 °C; as for `CC1(C)CCC(C)(C)c2cc(-c3cc(-c4ccc(C=O)cc4)ccc3-c3ccccc3)ccc21`, 120 to 122 °C.
`COc1ccc(CN2C(=O)C(C)(c3cc(C(=O)N4CCCCC4C(=O)N(C)CC(F)(F)F)ccc3Cl)c3cc(Cl)ccc32)c(OC)c1` (configuration not stated) returned a melting point of 99 °C.
As for `CCOC(=O)C1CCN(C(=O)c2ccc(/C=C/C(=O)O)cc2)CC1`, the figure is 165 °C; as for `CON=C(c1ccc(OC(C)(C)C(=O)O)cc1)c1cccs1`, 168 °C; as for `NCc1cccnc1C1CCN(c2cc3c(cc2F)c(=O)c(C(=O)O)cn3C2CC2)C1` (configuration not stated), 246 to 248 °C.
As for `CC(C)Oc1ccccc1NC(=O)Nc1ccc2cnccc2n1`, the figure is 78 to 80 °C; as for `Cc1cc(C)cc(-c2nc(NC(=O)c3cccnc3)sc2-c2ccncc2)c1`, 267 to 270 °C.
As for `NNC(=O)NN=Cc1ccc(Cl)cc1`, the figure is 188 to 189 °C.
`CCON=C(C(=O)O)c1csc(NC(c2ccccc2)(c2ccccc2)c2ccccc2)n1` yielded a melting point of 200 °C.
Turning to `CCn1cc(C(=O)O)c(=O)c2cc(F)c(N3CCN(S(=O)(=O)c4ccc(C)cc4)CC3)c(F)c21`, the melting point fell in the range of 236 to 237 °C.
The molecule `c1ccc(Nc2ccc3nnn(Cc4ccc5ncccc5c4)c3n2)cc1` registered a melting point of 237 to 239 °C.
Regarding `COc1cn(-c2ccc(N3CC(F)(F)C(F)(F)C3)cc2F)nc(-c2ccnn2-c2ccccc2)c1=O`, the melting point lay in the range of 175 to 177 °C.
As for `COc1ccnc(C(=O)N[C@H]2COC(=O)[C@H](CC3CCCCC3)[C@@H](OC(=O)C(C)C)[C@H](C)OC2=O)c1OC(C)=O`, the figure is 164 to 170 °C.
Turning to `COc1cc(C2=NC(C)(C)CO2)cc(OC)c1Br`, the melting point lay within 172 to 174 °C.
In turn, `CCCOc1ccc(-c2ncc(C#N)c(Cl)n2)cc1` displayed a melting point of 193 to 194 °C.
As for `O=S(=O)(CCl)c1ccc(O)c(Cl)c1`, the figure is 108 °C.
As for `O=C(O)C1=Cc2cc(I)cc(I)c2OC1C(F)(F)F` (configuration not stated), the figure is 243 to 244 °C; as for `O=C(O)CCCOc1cccc(CN2CCCCC2)c1`, 73 to 77 °C.
As for `O=C(O)C1c2ccccc2Cc2ccccc21`, the figure is 139 °C; as for `Cc1cccc2c1N(CCN(C(C)C)C(C)C)C(=O)C2=O`, 92 to 93 °C; as for `COc1cc(C2CCCCC2)ccc1CCCC(=O)O`, 104 to 105 °C.
For `CCc1nc2c(N)nc3ccccc3c2s1`, the melting point lay in the range of 170 to 172 °C.
As for `CC(C)(C)OC(=O)Nc1cc(CO)c(C#Cc2ccc(F)cc2)cc1[N+](=O)[O-]`, the figure is 198 °C; as for `COc1ccc(NC(=O)N2CCc3cc(F)c(Cl)cc32)cc1N1CCN(C)CC1`, 177 to 180 °C.
As for `COC(=O)COc1ccc(C(=O)Nc2ccccc2Sc2ccccc2-c2nnn[nH]2)cc1`, the figure is 204 to 205 °C; as for `O=C1OCc2ncccc21`, 113 to 118 °C; as for `CN1CCN(c2cc(Cl)cc3c2c(=O)n(Cc2cccc([N+](=O)[O-])c2)c(=O)n3Cc2ccccc2)CC1`, 200 to 205 °C.
Turning to `COc1ccc(C(CN)C2CCCCC2O)cc1` (mixture of isomers), the melting point lay in the range of 79 to 81 °C.
As for `O=C(NCCc1ncc(Cl)cc1Cl)c1ccccc1I`, the figure is 133 °C.
As for `CC(=O)NC1=NN(c2ccc(Cl)cc2)C(C)C1` (configuration not stated), the figure is 167 to 169 °C.
As for `Cc1cc(-c2ccc(S(N)(=O)=O)cc2)n(-c2ccc(F)cc2F)c1`, the figure is 140 to 141 °C.
The molecule `CCCc1c(C(=O)OCC)c2c3c(ccc2n1C)OC1c2ccc(SC)cc2CCN1C3` (configuration not stated) came in with a melting point of 139 to 143 °C.
As for `Cc1cccc(-c2nscc2C(=O)O)c1`, the figure is 144 to 146 °C.
As for `CC(C)CCC(=O)CC1c2ccccc2C(=O)N1c1ccc2ccc(Cl)nc2n1` (configuration not stated), the figure is 172 °C.
